Laboratory results reported in US10209240B2, “Predicting human developmental toxicity of pharmaceuticals using human stem-like cells and metabolomic ratios” (STEMINA BIOMARKER DISCOVERY, INC., priority 2012, dated 2019).
Like-named read-outs stand apart in the source and are kept apart here. Each block holds one molecule with its values, some of them ahead of it.

How the values were obtained:
[1] = system: hES cells; experiment: ADMA/cystine ratio simplified predictive model in hES cell spent media; type: cell-based, human; conditions: single dose per treatment; ratios less than 0.9 indicate teratogenicity
Text: (§1) This simplified model is based on a ratio of the reference treatment (DMSO) normalized values of ADMA and cystine.
The X-axis is the reference normalized ratio of ADMA/Cystine. The y-axis is the training set of pharmaceuticals. Grey color with triangle glyphs represents teratogens and black color with circle glyphs represents non-teratogens. Each glyph point represents the media value of an independent experimental block (6 reps per block). The crosshair glyphs mark the sample medians. In FIG. 9, grey vertical line is threshold of teratogenicity, grey horizontal lines are the median absolute deviations, and black vertical line designates 1.0. The arrows at the bottom indicate the values used for differentiation of teratogens and nonteratogens, utilizing a cut off of 0.9 (grey line).

[2] = system: Humans; conditions: cited from earlier work; for Known Effect: validation and test set treatments of Example 2; for Humans (known human developmental toxicity): training and test set
[3] = system: hES cells; experiment: devTOX computational model predictions (Version 2.0, Version 2.1) from hES cell metabolomics; type: cell-based, human; conditions: single dose per treatment (Dose column)
Text: The selection process weighted the predictive capacity of a feature, overall intensity, and peak shape to identify very well behaved features/metabolites that could be measured by targeted LC-MS or even by other detection systems.
as §1

[4] = system: Rodent; conditions: training and test set; cited from earlier work
[5] = system: Rabbit; conditions: training and test set; cited from earlier work
[6] = system: WA09 hES cells
Procedure: Phase I hES Cell Compound Exposure. hES cells were treated with a test compound at a single concentration equivalent to the compound's published therapeutic Cmax. […] This was done to ensure that enough cells were present at the time of sample collection to provide a signal for LC-HRMS analysis. For test compound exposure, all compound stock solutions, with the exception of valproic acid, were made with DMSO (Sigma-Aldrich). […] Each 96-well plate included media controls with and without test compound, 0.1% DMSO solvent control cells and cells exposed to a single concentration of eight different test compounds (FIG. 1A). Media controls were included on each plate to assess the impact of test compound on the sample matrix. hES cells were exposed to the test compound for 72 hours, with media and test compound replacement every 24 hours. Cells were monitored throughout the treatment period to ensure that no differentiation was occurring. After 72 hours of treatment, the spent media from the final 24-hour treatment period was collected and added to acetonitrile (Sigma-Aldrich, final acetonitrile concentration 40%), to halt metabolic processes and precipitate proteins from solution. Individual wells from each 96-well plate were collected and analyzed as separate samples. These samples were then stored at −80° C. until prepared for LC-HRMS analysis. Cell viability was assessed using the CellTiter-Fluor Cell Viability Assay as per the manufacturer's instructions (Promega, Madison, Wis.). Quality control parameters were set such that if the coefficient of variation (CV) for the viability relative fluorescent units (RFU) of the 6 cellular samples in a treatment exceeded 10% and no outliers were identified using the Grubb's test (see the worldwide web at graphpad.com/quickcalcs/Grubbs1.cfm), analysis was halted for that compound and the cell culture experiment was repeated. If outliers were present, the outlier sample was removed from analysis. If the CV for the DMSO control cell samples on a plate were outside of the quality control parameters, the entire plate was repeated. hES cell exposure to each of the 23 compounds was replicated a total of nine times.
(§2) Phase 2 hES Cell Compound Exposure. […] The standard compound exposure levels used for most compounds were nine, 3-fold dilutions ranging from 0.04 μM-300 μM (FIG. 1B). […] The stock solution was diluted 1:1000 in mTeSR1 media and subsequent dilutions were performed in mTeSR1 containing 0.1% DMSO such that the final concentration of DMSO was 0.1% in all treatments. hES cells were treated for 72 hours and spent media from the last 24-hour treatment period was collected and added to acetonitrile containing ^13C6 labeled arginine (Cambridge Isotope Laboratories, Andover, Md.) as described under Phase 1. Spent media samples were stored at −80° C. until prepared for LC-HRMS analysis. Cell viability was assessed using the CellTiter-Fluor Cell Viability Assay. A quality control step was included with criteria that the CV of the measured viability RFU of the DMSO control cells could not exceed 10% for a plate to undergo LC-HRMS analysis. A dose response curve was fit to the reference treatment (0.1% DMSO treated control cells) normalized data (Viability RFUTrt X/Viability RFUDMSO) using a four-parameter log-logistic model with the R package “drc” (Ritz and Streibig, 2005, J Statistical Software; 12:1-22).
Phase 2 Prediction of Developmental Toxicity Potential. […] FIG. 2 illustrates how the assay is applied in this situation. A test compound is considered to be teratogenic at the exposure level where the o/c ratio exceeds the teratogenicity threshold (red box, FIG. 2).

[7] = summarized from TERIS and Briggs et al. 2011, cited from earlier work
[8] = system: WA09 hES cells; experiment: Phase 2 targeted biomarker assay, ornithine/cystine ratio, 9-point dose response
Text: Undifferentiated hES Cell Line Maintenance (Phases 1 and 2). WA09 hES cells were obtained from the WiCell Research Institute (Madison, Wis.) and were maintained in feeder free conditions using mTeSR1 media (StemCell Technologies, Inc., Vancouver, BC, Canada) on hESC-qualified Matrigel (BD Biosciences, San Jose, Calif.) coated 6-well plates. To maintain the undifferentiated stem cell population, differentiated colonies were removed daily through aspiration and media was replaced. Additionally, the hES cells were only used in experiments up to passage 40 and were karyotyped approximately every 10 passages to minimize and monitor the potential for genetic instability. hES cells were passaged at 90-95% confluency (approximately every 7 days) using Versene (Life Technologies, Grand Island, N.Y.). Cell cultures were maintained at 37° C. under 5% CO2.
96-well hES Cell Plating (Phases 1 and 2). All experimental treatments were carried out in 96-well plates. To minimize plating variability and increase reproducibility, hES cells were plated as a single cell suspension and maintained in an undifferentiated state during compound exposure. Prior to plating in the 96-well plates, hES cells were removed from a 6-well plate using TrypLE (Life Technologies). The cells were washed with DMEM/F12 (Life Technologies) and resuspended in mTeSR1 containing 10 μM Y27632 Rho-associated kinase (ROCK) inhibitor (Merck KGaA/Calbiochem, Darmstadt, Germany). The ROCK inhibitor is added to the plating media to increase plating efficiency by decreasing dissociation-induced apoptosis. The inner 60 wells of hESC-qualified Matrigel coated 96-well plates were seeded at a density of 100,000 cells per well. The outer wells of the plate contained an equal volume media to minimize differences in humidity across the plate. Compound exposure began 24 hours after plating.
as §2
Sample Preparation (Phases 1 and 2). High molecular weight constituents (>10 KDa) of the spent media samples were removed using a Millipore Multiscreen Ultracel-10 filter plate (EMD Millipore, Billerica, Mass.). Prior to sample filtration, the filter plate was washed with 0.1% NaOH to remove a known contaminant polymer. The plate was then rinsed twice with HPLC-grade water to remove residual polymers and NaOH. Spent media samples were added to the washed filter plate. In Phase 1, samples were spiked with ^13C6 labeled arginine. Samples were centrifuged at 2,000×g at 4° C. for 200 minutes. The filtrate was collected and concentrated overnight in a Savant High Capacity Speedvac Plus Concentrator.

[9] = therapeutic peak plasma in vivo concentration, human, cited from earlier work
[10] = test set, teratogenicity potential scored against therapeutic Cmax
[11] = training and test set, o/c ratio scored against therapeutic Cmax

SMILES: C=CC=O [Acrolein]
Model Predictions ADMA/Cystine [1]: Ter
Known Effect [2]: Ter
Model Predictions Version 2.0 [3]: Ter
Model Predictions Version 2.1 [3]: Ter

SMILES: Nc1nc(N)c2nc(CNc3ccc(C(=O)N[C@@H](CCC(=O)O)C(=O)O)cc3)cnc2n1 [Aminopterin]
Rodent prediction [4]: TER
Rabbit prediction [5]: TER
Model Predictions ADMA/Cystine [1]: Ter
Humans (known human developmental toxicity) [2]: TER
Known Effect [2]: Ter
Model Predictions Version 2.0 [3]: Ter
Model Predictions Version 2.1 [3]: Ter
Teratogenicity Potential (μM) Cell Viability ([6]; test set, interpolated concentration where cell viability dose response curve crosses teratogenicity threshold 0.88, 72 hours): 0.01 µM
Viability Prediction [6, 10]: TER
Preclinical in vivo and known human developmental effects ([7]; test set compounds): Craniofacial, limb, skeletal,
Teratogenicity Potential (μM) O/C Ratio ([8]; test set, interpolated concentration where o/c ratio dose response curve crosses teratogenicity threshold 0.88, 72 hours): 0.01 µM
O/C Ratio Prediction [8, 10]: TER
Targeted Biomarker Assay prediction [8, 11]: TER
Cmax ([9]; test set): 0.3 µM

SMILES: O=C1O[C@H]([C@@H](O)CO)C(O)=C1O [Ascorbic Acid]
Model Predictions ADMA/Cystine [1]: Non
Model Predictions Version 2.0 [3]: Non
Model Predictions Version 2.1 [3]: Non
Viability Prediction [6]: NON
Teratogenicity Potential (μM) Cell Viability ([6]; human, 72 h): >300 µM
Targeted Biomarker Assay prediction [8]: NON
Cmax ([9]; training set): 90 µM

SMILES: NC(=O)NO [Hydroxyurea]
Model Predictions ADMA/Cystine [1]: Ter
Humans (known human developmental toxicity) [2]: TER
Model Predictions Version 2.0 [3]: Ter
Model Predictions Version 2.1 [3]: Ter
Viability Prediction [6]: TER
Cytotoxicity at the Cmax exposure level ([6]; human, 72 h): greater than 30%
Teratogenicity Potential (μM) Cell Viability ([6]; human, 72 h): 251.6 µM
Targeted Biomarker Assay prediction [8]: TER
Cmax ([9]; training set): 565 µM

SMILES: Cc1ncc(C[n+]2csc(CCO)c2C)c(N)n1 [Thiamine]
Model Predictions ADMA/Cystine [1]: Non
Humans (known human developmental toxicity) [2]: NON
Known Effect [2]: Non
Model Predictions Version 2.0 [3]: Non
Model Predictions Version 2.1 [3]: Non
Viability Prediction [6]: NON
Teratogenicity Potential (μM) Cell Viability ([6]; human, 72 h): >300 µM
Preclinical in vivo and known human developmental effects ([7]; training set compounds): None
O/C Ratio Prediction [8]: NON
Targeted Biomarker Assay prediction [8]: NON
Teratogenicity Potential (μM) O/C Ratio ([8]; human, 72 h): >300 µM
Cmax ([9]; training set): 0.67 µM

SMILES: CC(=O)CC(c1ccccc1)c1c(O)c2ccccc2oc1=O (centres unmarked) [Warfarin]
Model Predictions ADMA/Cystine [1]: Ter
Humans (known human developmental toxicity) [2]: TER
Model Predictions Version 2.0 [3]: Ter
Model Predictions Version 2.1 [3]: Ter
Teratogenicity Potential (μM) Cell Viability ([6]; training set, interpolated concentration where cell viability dose response curve crosses teratogenicity threshold 0.88, 72 hours): >300 µM
Viability Prediction ([6]; training set, teratogenicity potential scored against therapeutic Cmax): NON
Targeted Biomarker Assay prediction [8, 11]: TER
Cmax ([9]; training set): 23.4 µM

Second part, led by results:

O/C Ratio Prediction [8]: NON
Targeted Biomarker Assay prediction [8]: NON
SMILES: CC1(C)S[C@@H]2[C@H](NC(=O)[C@H](N)c3ccc(O)cc3)C(=O)N2[C@H]1C(=O)O [Amoxicillin]
Rodent prediction [4]: NON
Model Predictions ADMA/Cystine [1]: Non
Humans (known human developmental toxicity) [2]: NON
Known Effect [2]: Non
Model Predictions Version 2.0 [3]: Non
Model Predictions Version 2.1 [3]: Non
Viability Prediction [6]: NON
Teratogenicity Potential (μM) Cell Viability ([6]; human, 72 h): >300 µM
Preclinical in vivo and known human developmental effects ([7]; test set compounds): None
Teratogenicity Potential (μM) O/C Ratio ([8]; human, 72 h): >300 µM
Cmax ([9]; test set): 20.5 µM

Targeted Biomarker Assay prediction [8]: NON
SMILES: CN(C)CCOC(c1ccccc1)c1ccccc1 [Diphenhydramine]
Model Predictions ADMA/Cystine [1]: Non
Model Predictions Version 2.0 [3]: Non
Model Predictions Version 2.1 [3]: Non
Viability Prediction [6]: NON
Teratogenicity Potential (μM) Cell Viability ([6]; human, 72 h): 78.9 µM

Targeted Biomarker Assay prediction [8]: NON
SMILES: CN(C)CCOC(C)(c1ccccc1)c1ccccn1 (centres unmarked) [Doxylamine]
Model Predictions ADMA/Cystine [1]: Non
Humans (known human developmental toxicity) [2]: NON
Model Predictions Version 2.0 [3]: Non
Model Predictions Version 2.1 [3]: Non
Viability Prediction [6]: NON
Teratogenicity Potential (μM) Cell Viability ([6]; human, 72 h): >300 µM
Cmax ([9]; training set): 0.38 µM

O/C Ratio Prediction [8]: NON
Targeted Biomarker Assay prediction [8]: NON
SMILES: N[C@@H](Cc1cc(I)c(Oc2cc(I)c(O)c(I)c2)c(I)c1)C(=O)O [Levothyroxine]
Rodent prediction [4]: NON
Rabbit prediction [5]: NON
Model Predictions ADMA/Cystine [1]: Non
Humans (known human developmental toxicity) [2]: NON
Known Effect [2]: Non
Model Predictions Version 2.0 [3]: Ter
Model Predictions Version 2.1 [3]: Non
Viability Prediction [6]: NON
Teratogenicity Potential (μM) Cell Viability ([6]; human, 72 h): >300 µM
Preclinical in vivo and known human developmental effects ([7]; training set compounds): None
Teratogenicity Potential (μM) O/C Ratio ([8]; human, 72 h): 43.5 µM
Cmax ([9]; training set): 0.14 µM
